This is an account of results in ChEMBL document CHEMBL1201862, “PubChem BioAssay data set” (2004).

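Test compounds were applied to cells in 96-well plates for 48 hours at 5 doses. GI50 marks 50% less growth.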 Activity calls are given as the source filed them. Cut-off read from the data, not from the text of the source: active = GI50 up to about 1.1 µM and inactive = higher.

Some test systems named below: 786-0; A498; A549; HCT-116; HCT-15; Hs-578T; IGROV-1; K562; LOX IMVI; M14; MDA-MB-231; NCI-H23; OVCAR-3; OVCAR-4; OVCAR-5; OVCAR-8; SK-MEL-2; SK-OV-3; SW-620; T47D.
Holding throughout (assay): DTP human tumour cell line panel, 48 h

In general, GI50 refers to the concentration that inhibits growth by half.

Consider `Nc1cc2c(nc3c4ccccc4c(N)cc3[n+]2-c2cccc3ccccc23)c2ccccc12.Nc1cc2c(nc3c4ccccc4ccc3[n+]2-c2cccc3ccccc23)c2ccccc12`, for which the GI50 is 1.21 µM (inactive) in the assay with 786-0; 3.48 µM (inactive) with A498; 1.39 µM (inactive) in the assay with A549; 1.67 µM (inactive) with HCT-116; 2.97 µM in the assay with HCT-15; 1.17 µM (inactive) in the assay with Hs-578T. In addition, the GI50 is 1.71 µM (inactive) in the assay with IGROV-1; 0.448 µM (active) in the assay with K562; 1.97 µM (inactive) in the assay on LOX IMVI; 2 µM (inactive) with M14; 0.276 µM (active) with MDA-MB-231; 1.15 µM (inactive) in the assay with NCI-H23. For the same compound, the concentration for 50% growth inhibition (GI50) with OVCAR-3 was 0.593 µM (active); with OVCAR-4, 1.71 µM (inactive); with OVCAR-5, 7.28 µM (inactive); in the assay on OVCAR-8 it was 0.714 µM (active); with SK-MEL-2, 1.57 µM (inactive); in the assay with SK-OV-3 it was 4.32 µM (inactive). Also, the GI50 with SW-620 is 1.55 µM (inactive); with T47D, 0.687 µM (active).
`N/C(=N\O)N/N=C/c1ccc2c(c1)OCO2`: the GI50 in the assay with 786-0 was 12.9 µM (inactive); in the assay on A498 it was 21 µM (inactive); in the assay on A549, 14.7 µM (inactive); with HCT-116, 21.1 µM (inactive); with HCT-15, 22 µM; with Hs-578T, > 100 µM (inactive). Besides, the GI50 is 25 µM (inactive) in the assay with IGROV-1; 18.5 µM (inactive) in the assay on K562; 17.4 µM (inactive) in the assay with LOX IMVI; 13.5 µM (inactive) in the assay on M14; 38.5 µM (inactive) in the assay on MDA-MB-231; 27 µM (inactive) with NCI-H23. Further, the GI50 with OVCAR-3 is 14.2 µM (inactive); with OVCAR-4, 26.4 µM (inactive); in the assay on OVCAR-5 it was 24.7 µM (inactive); in the assay on OVCAR-8 it was 12.5 µM (inactive); with SK-MEL-2 it was 22 µM (inactive); in the assay on SK-OV-3, 47.4 µM (inactive). In addition, the results for the GI50 with SW-620 and in the assay on T47D were 63.4 µM (inactive) and 46 µM (inactive), respectively.
`O=C(O)c1ccc(NS(=O)(=O)Cc2ccccc2)cc1`: the GI50 in the assay on 786-0 was > 100 µM (inactive); in the assay with A498, > 100 µM (inactive); in the assay on A549, > 100 µM (inactive); in the assay with HCT-116, > 100 µM (inactive); in the assay on HCT-15, > 100 µM; in the assay with Hs-578T, > 100 µM (inactive). Besides, the GI50 in the assay on IGROV-1, with K562, with LOX IMVI, in the assay on M14, in the assay on MDA-MB-231 and with NCI-H23 was > 100 µM (inactive) throughout. Moreover, the GI50 with OVCAR-3, in the assay with OVCAR-4, in the assay on OVCAR-5, with OVCAR-8, with SK-MEL-2 and with SK-OV-3 was > 100 µM (inactive) each time. The GI50 in the assay with SW-620 and with T47D was > 100 µM (inactive) throughout.
As to `CCC(=O)N/S(=N/S(=O)(=O)c1ccccc1)C(Cl)(Cl)Cl` (stereo not given), the GI50 in the assay on 786-0 was > 100 µM (inactive); in the assay with A498, > 100 µM (inactive); in the assay on A549, > 100 µM (inactive); in the assay on HCT-116, > 100 µM (inactive); with HCT-15, > 100 µM; in the assay with Hs-578T it was > 100 µM (inactive). The GI50 in the assay on IGROV-1, in the assay with K562, with LOX IMVI, with M14, in the assay on MDA-MB-231 and in the assay on NCI-H23 was > 100 µM (inactive) throughout. Moreover, the GI50 in the assay on OVCAR-3, with OVCAR-4, in the assay on OVCAR-5, with OVCAR-8, in the assay on SK-MEL-2 and with SK-OV-3 was > 100 µM (inactive) each time. Besides, the GI50 with SW-620 and in the assay on T47D was > 100 µM (inactive) each time.
In the case of `OCCCCn1cc(Cn2ncc3c(O)ncnc32)nn1`, the GI50 in the assay on 786-0 was > 100 µM (inactive); in the assay on A498, > 100 µM (inactive); with A549, > 100 µM (inactive); with HCT-116, > 100 µM (inactive); with HCT-15, > 100 µM; with Hs-578T, > 100 µM (inactive). In addition, the GI50 with IGROV-1, in the assay with K562, with LOX IMVI, in the assay on M14, in the assay with MDA-MB-231 and in the assay with NCI-H23 was > 100 µM (inactive) in each case. Also, the GI50 with OVCAR-3, with OVCAR-4, with OVCAR-5, in the assay on OVCAR-8, in the assay with SK-MEL-2 and with SK-OV-3 was > 100 µM (inactive) each time. The GI50 in the assay with SW-620 and with T47D was > 100 µM (inactive) each time.
Take `CCOC(=O)CCc1ccc(NC(=O)/C=C/c2ccc([N+](=O)[O-])o2)cc1`: the GI50 with 786-0 is 0.229 µM (active); in the assay with A498 it was 3.14 µM (inactive); in the assay on A549, 3.72 µM (inactive); with HCT-116, 0.685 µM (active); in the assay on HCT-15, 1.77 µM; with Hs-578T, 3.16 µM (inactive). The GI50 in the assay on IGROV-1 was 3.5 µM (inactive); in the assay with K562 it was 0.27 µM (active); with LOX IMVI, 0.356 µM (active); in the assay on M14, 0.92 µM (active); in the assay with MDA-MB-231, 1.8 µM (inactive); with NCI-H23, 0.863 µM (active). Besides, the GI50 is 0.61 µM (active) in the assay on OVCAR-3; 3.94 µM (inactive) in the assay with OVCAR-4; 2.34 µM (inactive) in the assay with OVCAR-5; 0.681 µM (active) with OVCAR-8; 2.06 µM (inactive) in the assay on SK-MEL-2; 9.12 µM (inactive) in the assay on SK-OV-3. Also, the GI50 in the assay on SW-620 is 0.547 µM (active); in the assay on T47D, 3.24 µM (inactive).
Consider `Nc1n[nH]c(N)n1` [GUANAZOLE], for which the GI50 in the assay with 786-0 was 2580 µM (inactive); in the assay on A498, 5470 µM (inactive); in the assay with A549, 4420 µM (inactive); in the assay with HCT-116, 5980 µM (inactive); with HCT-15, 7670 µM; in the assay with Hs-578T, > 10000 µM (inactive). Further, the GI50 is 7000 µM (inactive) in the assay on IGROV-1; 7110 µM (inactive) in the assay with K562; 2960 µM (inactive) with LOX IMVI; 3310 µM (inactive) in the assay with M14; > 10000 µM (inactive) in the assay with MDA-MB-231; 5300 µM (inactive) in the assay on NCI-H23. The GI50 in the assay on OVCAR-3 is > 10000 µM (inactive); with OVCAR-4 it was > 9120 µM (inactive); in the assay on OVCAR-5, 4980 µM (inactive); in the assay on OVCAR-8, 3400 µM (inactive); in the assay with SK-MEL-2, > 9790 µM (inactive); in the assay with SK-OV-3 it was 3210 µM (inactive). Besides, the GI50 in the assay on SW-620 is > 9380 µM (inactive); with T47D, > 9160 µM (inactive).
`NC(=O)Cc1nc2c(O)ncnc2n1C1OC(CO)C(O)C1O` (stereo not given): the GI50 in the assay on 786-0 is > 100 µM (inactive); in the assay with A498, > 100 µM (inactive); with A549 it was > 100 µM (inactive); in the assay with HCT-116, > 100 µM (inactive); in the assay on HCT-15 it was > 100 µM; in the assay on Hs-578T it was > 100 µM (inactive). For the same compound, the GI50 with IGROV-1, in the assay on K562, with LOX IMVI, in the assay with M14, in the assay on MDA-MB-231 and in the assay with NCI-H23 was > 100 µM (inactive) throughout. Further, the GI50 in the assay on OVCAR-3, in the assay with OVCAR-4, in the assay on OVCAR-5, in the assay with OVCAR-8, in the assay with SK-MEL-2 and with SK-OV-3 was > 100 µM (inactive) throughout. Besides, the GI50 with SW-620 and in the assay on T47D was > 100 µM (inactive) throughout.
In the case of `COC(=O)c1ccc(CCc2cc(O)ccc2O)cc1`, the GI50 in the assay with 786-0 is 5.47 µM (inactive); with A498, 37.6 µM (inactive); with A549, 26.8 µM (inactive); in the assay on HCT-116, 10.4 µM (inactive); with HCT-15, 8.79 µM; with Hs-578T, 16.1 µM (inactive). Further, the GI50 in the assay on IGROV-1 was 6.49 µM (inactive); in the assay on K562, 2.15 µM (inactive); in the assay on LOX IMVI it was 6.12 µM (inactive); with M14, 10.6 µM (inactive); in the assay with MDA-MB-231, 10.1 µM (inactive); in the assay on NCI-H23, 13.6 µM (inactive). The GI50 in the assay on OVCAR-3 was 2.96 µM (inactive); in the assay on OVCAR-4 it was 10.8 µM (inactive); in the assay on OVCAR-5, 19.2 µM (inactive); in the assay with OVCAR-8, 2.85 µM (inactive); in the assay on SK-MEL-2, 18.8 µM (inactive); in the assay with SK-OV-3, 38 µM (inactive). Also, the GI50 in the assay on SW-620 was 6.27 µM (inactive); in the assay with T47D, 2.6 µM (inactive).
In the case of `COCc1nc(N)nc(N2N=C(C)CC2(C)C)n1`, the GI50 in the assay on 786-0 was > 100 µM (inactive); with A498 it was > 100 µM (inactive); in the assay on A549, > 100 µM (inactive); with HCT-116 it was > 100 µM (inactive); in the assay on HCT-15, > 100 µM; in the assay on Hs-578T, > 100 µM (inactive). Moreover, the GI50 with IGROV-1, in the assay on K562, with LOX IMVI, in the assay with M14, in the assay on MDA-MB-231 and in the assay with NCI-H23 was > 100 µM (inactive) each time. The GI50 in the assay on OVCAR-3, in the assay with OVCAR-4, in the assay on OVCAR-5, in the assay on OVCAR-8, in the assay on SK-MEL-2 and in the assay on SK-OV-3 was > 100 µM (inactive) in each case. Also, the GI50 in the assay on SW-620 and in the assay on T47D was > 100 µM (inactive) in each case.
